From patent publication US20250281424A1 (New York Blood Center, Inc, priority 2020, published 2025) come the findings set out here.

As a reminder, the pIC50 is the negative decadic logarithm of the IC50, by convention in mol/L. In general, EC50 refers to the midpoint of the concentration-response curve. For orientation: kinetic solubility means solubility judged after dilution from a stock solution rather than from solid.

For series [1], the target named is T1, ultra large complexes (ULC) between PF4 tetramers and heparin (Homo sapiens, UniProt P02776).
T1 construct: platelet factor 4 which is a 70 amino acid, lysine-rich, 7.8 kDa platelet-specific protein
T1 sequence (P02776 32-101): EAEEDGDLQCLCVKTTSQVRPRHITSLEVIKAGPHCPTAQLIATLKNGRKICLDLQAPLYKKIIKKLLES
Nature of the series: Inhibition of formation of ultra large complexes (ULC) of PF4 tetramers and heparin. Type of series: biochemical. Particulars: for pIC50: IC50 values are +/−20%. As to the method:
Since ULCs are formed as part of a dynamic equilibrium between heparin and PF4, dynamic light scattering (DLS) was performed to measure the ability of the exemplified compounds to disrupt preformed ULCs. Samples were analyzed and included PF4 incubated in the absence or presence of unfractionated heparin (UFH) for 20 min at room temperature at PF4 to heparin ratios (PHR) of 1:0 (no heparin), 2:1, and 0.64:1. The samples were then analyzed using photon correlation spectroscopy on a DynaPro® DLS instrument and Dynamics® software (V6.7.6; […]) to obtain correlation function. The results of the DLS analysis indicate the percentage of ULCs and small PF4 particles. Data for the small particles (a population of particles with a mean hydrodynamic diameter of about 1 nm) and data for the large particles (a population of particles with a mean hydrodynamic diameter of about 300 nm) is assessed. Data are expressed as the percent of total intensity from each measurement, the mean of 10 measurements, and representative of two such experiments.
ELISA measurement and gel filtration measurement of ULC inhibition were performed as described in International Patent Publication No. WO2013/142328, which is incorporated herein by reference. Similarly, assays in which heparin concentrations are varied to determine the effect on ULC inhibition were performed as described in that publication.
Certain compounds were evaluated for their ability to inhibit formation of ultra large complexes (ULC) between PF4 tetramers and heparin.

A short description of series [2]: Cytotoxicity HepG2 (MTS reduction). Type of series: cell-based. Particulars: human, HepG2 cells; read-out: Cytotox HepG2 EC50. On the technique in general: Formazan colour is commonly taken as a measure of viable cells.
Series [3] can be described thus: Cytotoxicity NIH3T3 (MTS reduction). It counts as cell-based. Particulars: mouse, NIH3T3 cells, 1 hour exposure in the absence of serum, N = 3, read-out: Cytotox NIH3T3 EC50.
Series [4] is described as follows: Human microsome stability. Type of series: in vitro ADME. Particulars: for half-life at 0.5 μM / microsomal CLint at 0.5 μM: Human microsomes, compound conc = 0.5 μM, n = 1; for half-life at 0.5 μM: read-out: Human microsome stability Half life t1/2; for microsomal CLint at 0.5 μM: read-out: Human microsome stability Intrinsic Clearance Clint (ml/min/mg protein); for intrinsic clearance in human microsome assay / stability in human microsome assay: human microsomes. The text has this: (§1) Certain exemplified compounds were examined for ADMET (absorption, distribution, metabolism, excretion and toxicity) profiling using conventional assays with the results shown in the Tables 3A-3C below.

Series [5] in a line: Mouse microsome stability. Type of series: in vitro ADME. Particulars: for half-life at 0.5 μM: Mouse microsomes, compound conc = 0.5 μM, n = 1, read-out: Mouse microsome stability Half life t1/2; for intrinsic clearance in mouse microsome assay / stability in mouse microsome assay: mouse microsomes.
From the text: as §1

For the next series, the target named is T2, P450 1A2 (Homo sapiens, UniProt P05177).
T2 sequence (P05177 1-516): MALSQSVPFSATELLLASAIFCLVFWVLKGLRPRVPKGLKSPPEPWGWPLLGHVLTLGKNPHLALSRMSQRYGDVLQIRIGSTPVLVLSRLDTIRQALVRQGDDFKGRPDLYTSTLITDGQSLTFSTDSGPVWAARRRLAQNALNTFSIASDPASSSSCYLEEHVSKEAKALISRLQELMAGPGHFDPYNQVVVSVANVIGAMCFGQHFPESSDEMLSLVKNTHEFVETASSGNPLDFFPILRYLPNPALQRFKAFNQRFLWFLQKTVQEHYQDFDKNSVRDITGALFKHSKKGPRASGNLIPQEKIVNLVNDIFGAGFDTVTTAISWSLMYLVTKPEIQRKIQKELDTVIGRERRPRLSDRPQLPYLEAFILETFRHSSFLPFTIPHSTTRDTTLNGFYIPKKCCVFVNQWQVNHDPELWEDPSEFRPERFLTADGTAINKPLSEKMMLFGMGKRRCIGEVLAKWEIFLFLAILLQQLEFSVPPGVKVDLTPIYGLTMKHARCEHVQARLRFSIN
Briefly: P450 inhibition 1A2. Type of series: in vitro ADME. As to the method: as §1
(§2) Examples 1 and 3 were evaluated as inhibitors of the five P450s that are the source of most DDI issues. […] The tested compounds meet drug property criteria for IV administration.

For the next series, the target named is P450 2C9 (Homo sapiens, UniProt P11712). Briefly: P450 inhibition 2C9. Type of series: in vitro ADME. As to the method: as §1, §2
The target of another series is P450 2C19 (Homo sapiens, UniProt P33261). Briefly: P450 inhibition 2C19. Type of series: in vitro ADME. As to the method: as §1, §2
The next series has as its target P450 3A4 (midazolam) (Homo sapiens, UniProt P08684). Briefly: P450 inhibition 3A4 (midazolam). It counts as in vitro ADME. As to the method: as §1, §2
A short description of series [6]: Kinetic solubility pH 7.4. Type of series: physicochemical.
From the text: as §1

Series [7] deals with human Ether-à-go-go-Related Gene (hERG) (Homo sapiens, UniProt Q12809). Nature of the series: hERG patch clamp assay. Particulars: for hERG inhibition: 30 μM concentration, patch clamp. Type of series: in vitro ADME. As to the method:
as §1, §2
In general terms: hERG is a cardiac potassium channel; its block is linked to QT prolongation.

The mark [8] stands for this setting: pH 7.4, aqueous buffer, kinetic from dmso stock.

pIC50: −log10 of the molar value. ≈ marks a conversion by molar mass, not a printed value. Where two headings read alike, the source gives them in different places.

Chain of P450 3A4 (midazolam) (P08684 whole entry): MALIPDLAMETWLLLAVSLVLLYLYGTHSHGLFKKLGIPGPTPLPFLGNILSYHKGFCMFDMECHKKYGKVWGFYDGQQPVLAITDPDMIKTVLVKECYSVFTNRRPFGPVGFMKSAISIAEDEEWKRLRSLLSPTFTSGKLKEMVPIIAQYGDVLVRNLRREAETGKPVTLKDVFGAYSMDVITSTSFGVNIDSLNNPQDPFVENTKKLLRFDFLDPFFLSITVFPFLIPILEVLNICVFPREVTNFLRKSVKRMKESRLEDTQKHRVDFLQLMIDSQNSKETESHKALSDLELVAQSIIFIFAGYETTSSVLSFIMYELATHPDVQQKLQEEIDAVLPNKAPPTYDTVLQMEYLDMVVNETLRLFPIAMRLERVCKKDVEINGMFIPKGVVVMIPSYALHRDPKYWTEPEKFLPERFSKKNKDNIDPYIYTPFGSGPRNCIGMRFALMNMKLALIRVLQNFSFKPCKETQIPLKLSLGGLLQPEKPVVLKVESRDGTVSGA
Chain of P450 2C19 (P33261 whole entry): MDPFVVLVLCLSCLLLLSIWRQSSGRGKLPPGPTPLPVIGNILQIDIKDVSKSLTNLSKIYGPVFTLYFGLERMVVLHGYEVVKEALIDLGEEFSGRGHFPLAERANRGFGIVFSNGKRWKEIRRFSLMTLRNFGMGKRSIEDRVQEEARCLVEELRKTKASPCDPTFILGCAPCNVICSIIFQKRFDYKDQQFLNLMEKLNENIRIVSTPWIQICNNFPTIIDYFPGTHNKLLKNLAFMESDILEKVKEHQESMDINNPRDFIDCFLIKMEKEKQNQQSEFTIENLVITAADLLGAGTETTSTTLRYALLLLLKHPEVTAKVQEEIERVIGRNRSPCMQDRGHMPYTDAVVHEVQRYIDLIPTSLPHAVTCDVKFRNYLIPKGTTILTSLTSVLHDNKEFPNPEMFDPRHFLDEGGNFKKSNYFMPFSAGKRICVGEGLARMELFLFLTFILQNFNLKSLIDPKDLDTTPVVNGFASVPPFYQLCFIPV
Chain of human Ether-à-go-go-Related Gene (hERG) (Q12809 whole entry): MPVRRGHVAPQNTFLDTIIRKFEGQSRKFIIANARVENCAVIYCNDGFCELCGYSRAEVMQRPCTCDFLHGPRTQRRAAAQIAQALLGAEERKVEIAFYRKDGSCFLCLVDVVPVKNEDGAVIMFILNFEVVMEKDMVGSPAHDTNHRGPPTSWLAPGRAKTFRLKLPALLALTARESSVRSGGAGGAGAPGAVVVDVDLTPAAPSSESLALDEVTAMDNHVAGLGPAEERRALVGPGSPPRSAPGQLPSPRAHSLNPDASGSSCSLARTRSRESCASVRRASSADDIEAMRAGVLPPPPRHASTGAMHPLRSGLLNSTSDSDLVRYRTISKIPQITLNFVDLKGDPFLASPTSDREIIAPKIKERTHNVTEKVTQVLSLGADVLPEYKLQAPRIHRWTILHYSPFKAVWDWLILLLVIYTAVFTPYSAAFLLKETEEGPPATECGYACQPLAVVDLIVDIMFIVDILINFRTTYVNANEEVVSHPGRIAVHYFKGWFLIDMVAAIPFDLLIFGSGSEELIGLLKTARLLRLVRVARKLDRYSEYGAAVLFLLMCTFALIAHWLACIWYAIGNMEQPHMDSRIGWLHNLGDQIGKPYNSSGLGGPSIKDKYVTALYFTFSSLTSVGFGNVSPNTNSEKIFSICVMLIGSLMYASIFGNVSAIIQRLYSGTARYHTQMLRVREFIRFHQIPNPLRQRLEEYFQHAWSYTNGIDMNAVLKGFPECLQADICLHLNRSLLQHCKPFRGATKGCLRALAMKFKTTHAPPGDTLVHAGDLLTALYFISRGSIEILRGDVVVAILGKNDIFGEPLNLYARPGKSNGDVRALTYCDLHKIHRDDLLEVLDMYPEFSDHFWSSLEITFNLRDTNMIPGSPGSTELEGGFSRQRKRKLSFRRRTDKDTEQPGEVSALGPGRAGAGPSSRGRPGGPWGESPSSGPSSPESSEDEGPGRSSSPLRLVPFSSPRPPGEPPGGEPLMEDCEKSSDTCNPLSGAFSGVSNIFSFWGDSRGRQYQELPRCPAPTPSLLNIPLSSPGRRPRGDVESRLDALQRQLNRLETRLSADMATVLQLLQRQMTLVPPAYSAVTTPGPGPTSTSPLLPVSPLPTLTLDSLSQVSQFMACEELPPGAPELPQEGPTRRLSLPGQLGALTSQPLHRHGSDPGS
Chain of P450 2C9 (P11712 whole entry): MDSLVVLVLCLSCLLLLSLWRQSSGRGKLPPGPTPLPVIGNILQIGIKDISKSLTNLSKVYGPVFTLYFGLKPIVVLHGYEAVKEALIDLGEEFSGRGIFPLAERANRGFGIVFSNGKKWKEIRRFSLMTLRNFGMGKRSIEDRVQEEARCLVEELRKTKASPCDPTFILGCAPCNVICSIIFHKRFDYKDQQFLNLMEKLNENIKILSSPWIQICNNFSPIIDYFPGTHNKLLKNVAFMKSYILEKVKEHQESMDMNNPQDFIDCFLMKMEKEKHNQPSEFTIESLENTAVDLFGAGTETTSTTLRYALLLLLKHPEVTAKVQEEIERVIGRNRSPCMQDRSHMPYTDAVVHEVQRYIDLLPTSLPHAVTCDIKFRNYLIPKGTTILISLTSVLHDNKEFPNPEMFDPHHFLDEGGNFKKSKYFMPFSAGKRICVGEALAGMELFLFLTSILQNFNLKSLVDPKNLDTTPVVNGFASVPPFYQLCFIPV

In turn, `CC(=O)C1C(=O)c2ccc(C(=O)c3ccc4c(c3)C(=O)C(C(C)=O)C4=O)cc2C1=O` (centres unmarked) [Example 1, 5,5′-carbonylbis(2-acetyl-1h-indene-1,3(2h)-dione)] showed a pIC50 in [1] of 5.10. Also, the EC50 in series [2] is more than 1000 µg/mL. In series [3], the EC50 at 1 h is more than 1000 µg/mL. In series [4], the half-life at 0.5 μM amounted to 1.44 h, the microsomal CLint at 0.5 μM amounted to 15.8 mL/min/mg, the “intrinsic clearance in human microsome assay” value is given as “low intrinsic clearance” and the “stability in human microsome assay” value is “excellent stability”. For the same compound, in series [5], the half-life at 0.5 μM was more than 2.42 h, the “intrinsic clearance in mouse microsome assay” value was “low intrinsic clearance” and the “stability in mouse microsome assay” value was “excellent stability”. Besides, at P450 1A2, the pIC50 was 4.33 and the “inhibition of P450 1A2” value is listed as “moderate inhibition”. Besides, on P450 2C9, the pIC50 is 4.50 and the “inhibition of P450 2C9” value was “only moderate inhibition”. On P450 2C19, the pIC50 was less than 4.00 and the “inhibition of P450 2C19” value is on record as “no inhibition”. On P450 3A4 (midazolam), the pIC50 was less than 4.00 and the “inhibition of P450 3A4 midazolam” value was “no inhibition”. The solubility (kinetic) in [6] (pH 7.4) is more than 200 µM. In series [6] (setting [8]), this compound yielded a solubility (kinetic) of more than 200 µM. For the same compound, in series [7], the pIC50 is less than 4.52 and the “hERG inhibition” value was “no significant inhibition”.

On to `CCOC(=O)C1C(=O)c2ccc(C(=O)c3ccc4c(c3)C(=O)C(C(=O)OCC)C4=O)cc2C1=O` (centres unmarked) [Example 3, diethyl 5,5′-carbonylbis(1,3-dioxo-2,3-dihydro-1h-indene-2-carboxylate)], for which the “inhibition of ULC formation” value in series [1] (FIG. 6B) is given as “dose-dependent inhibition”. Further, the pIC50 in series [1] is 5.70; on P450 1A2 it was less than 4.00; at P450 2C9 (read-out: P450 Inhibition IC50 2C9), 4.78; at P450 2C19 (read-out: P450 Inhibition IC50 2C19) it was less than 4.00; at P450 3A4 (midazolam) (midazolam, read-out: P450 Inhibition IC50 3A4 (midazolam)), less than 4.00; in series [7] (read-out: hERG IC50) it was less than 4.52. The EC50 in [2] is more than 500 µg/mL. In addition, in series [3], the EC50 at 1 h is more than 500 µg/mL. In addition, the half-life at 0.5 μM in series [4] and in series [5] was more than 2.42 h in each case. Further, the microsomal CLint at 0.5 μM in [4] is less than 9.5 mL/min/mg. Moreover, the “intrinsic clearance in human microsome assay” value in series [4] is reported as “low intrinsic clearance”. Further, the “stability in human microsome assay” value in series [4] was “excellent stability”. Also, the “intrinsic clearance in mouse microsome assay” value in series [5] is given as “low intrinsic clearance”. In addition, the “stability in mouse microsome assay” value in series [5] is given as “excellent stability”. Further, the “inhibition of P450 2C9” value against P450 2C9 is on record as “only moderate inhibition”. For the same compound, the “inhibition of P450 2C19” value on P450 2C19 is on record as “no inhibition”. For the same compound, the “inhibition of P450 3A4 midazolam” value against P450 3A4 (midazolam) is recorded as “no inhibition”. In addition, the “aqueous solubility” value in series [6] is given as “good aqueous solubility”. In series [6] (setting [8]), this compound came in with a solubility (kinetic) of 88.2 µM (≈ 40.8 µg/mL). Further, in [7], the “hERG inhibition” value is on record as “no significant inhibition”.
